Structures are written as SMILES. Bounds are passed on as bounds.

`O=C1c2ccccc2S(=O)(=O)N1Cn1nnn(-c2ccccc2)c1=S`: the melting point is 140 to 142 °C.

Turning to `O=c1c2cccnc2c(-c2cccc(Cl)c2)nn1-c1ccccc1`, the melting point fell in the range of 144 to 145 °C. The compound `Cc1ccc2c(NCc3ccc(NC(=O)c4ccc(Br)cc4)cc3)nc(Cl)nc2c1` displayed a melting point of 295 to 298 °C. The value for `CN1CCN(c2ccc(Br)c3c2C[C@H](NC(=O)c2ccc(C(F)(F)F)cc2)CC3)CC1` was 229 to 230 °C; that for `Nn1nc(-c2ccc(Cl)cc2)cc1OCCN1CCCC1` was 131 °C; that for `CCc1cccc(Nc2ncnc3cc(OCCOC)c(OCCOC)cc23)c1` was 72 to 74 °C. With `CCOC(=O)C(Oc1cc(N)c(Cl)cc1C(=O)NCCN(CC)CC)c1ccccc1` (stereo not drawn), the melting point fell in the range of 84 to 87 °C. The value for `CCCN(C(=O)COc1c(Cl)cccc1Cl)C1CCc2c(ccc(O)c2O)C1` (stereo not drawn) was 157 to 159 °C. Under `CCOC(=O)/C(CCO[N+](=O)[O-])=C(\c1ccc(Cl)cc1)c1ccc(S(C)(=O)=O)cc1` stands 127 to 128 °C; under `COc1cc(-c2nc(-c3ccc(N(C)C)cc3)c(C)s2)cc(OC)c1OC(C)=O`, 247 to 249 °C; under `CCCCCCCCCC1OC1CO` (stereo not drawn), 55 to 56 °C. `O=C(CCc1nnc(Nc2ccccc2Cl)o1)NC1CCN(Cc2ccc(F)c(F)c2)CC1` registered a melting point of 162 to 163 °C. `O=C(Nc1ccc(CN2C(=O)[C@H]3CCC[C@H]3N(C(=O)CN3C(=O)c4ccccc4C3=O)c3ccccc32)cc1)c1ccc(Cl)cc1` (relative stereo): the melting point fell in the range of 191 to 194 °C. Under `CCN(CC)CCN(CCN1CCCCC1)c1ccc(-c2nc3ccc(Cl)cc3[nH]2)cc1` stands 156 °C; under `CCOP(=O)(OCC)C(C)(C)NC(=O)c1cccc([N+](=O)[O-])c1`, 95 to 96 °C. Compound `COC(=O)CS(=O)(=O)CCCCCn1nc(-c2ccccc2)c(-c2ccccc2)c1-c1ccccc1` gave a melting point of 102 °C. Consider `O=C(O)C(=O)c1ccc(OCCCCSc2ccc3ccccc3c2)cc1`, for which the melting point lay in the range of 113 to 115 °C. Compound `CC(C)(C)c1cc(-c2nnc(NN)s2)cc(C(C)(C)C)c1O` yielded a melting point of 109 to 122 °C. `COc1ccccc1NS(=O)(=O)c1ccc(COC2CCCCO2)cc1` (stereo not drawn) yielded a melting point of 67 to 70 °C. In the case of `O=C(CO)Cc1ccc2ccccc2c1`, the melting point was 109 to 110 °C. For the compound `O=C(NN=Cc1ccccc1)c1ccc(C(F)(F)F)cc1`, the melting point lay within 216 to 217 °C. Compound `COc1cccc2c1C(=O)c1c(OC)cc(CBr)cc1C2=O` returned a melting point of 176 to 178 °C. The value for `COc1cc2c(cc1OC)C(c1ccc(Cl)cc1)=NN=C(C)C2` was 188 to 198 °C; that for `CCOC(=O)C(=CNc1cc(C)nn1-c1ccccc1)C(=O)OCC` was 70 to 72 °C. In turn, `CCN(CC)Cc1cnc2c(C)c(NC(=O)c3ccc(-c4ccc(F)cc4)cc3)ccc2c1` registered a melting point of 155 to 156 °C. For `N#Cc1nn(-c2c(Cl)cc(C(F)(F)F)cc2Cl)c(NCc2cnccn2)c1S(=O)C(F)(F)F` (stereo not drawn), the melting point was 169 °C. The value for `CCCCCC(=O)NS(=O)(=O)CCc1cc(OCCCC)nn1Cc1ccc(Cl)cc1Cl` was 90 to 92 °C; that for `O=C1NC(O)c2cccn2-c2ccsc21` (stereo not drawn) was 172 °C. For the compound `OC1CCCC2Oc3ccccc3OC12` (stereo not drawn), the melting point was in the range of 81 to 82 °C. The compound `Brc1ccc(C23CC4(c5ccc(Br)cc5)CC(c5ccc(Br)cc5)(C2)CC(c2ccc(Br)cc2)(C3)C4)cc1` yielded a melting point of 354 °C. The compound `CSc1ccc(-c2coc3ccc(C(=O)NN)nc23)cc1` displayed a melting point of 240 to 241 °C. `CON=C(C(=O)O)c1cccc(OC)c1` yielded a melting point of 97 to 98 °C.

Compound `CC(C)(CNC(=O)c1ncc[nH]1)c1ccc(C(=O)Nc2cn3cc(C(F)(F)F)ccc3n2)cc1` gave a melting point of 292 to 293 °C. For the compound `Cc1cnc(C#Cc2ccccc2)s1`, the melting point is 82 to 83 °C. `CSC1C(=O)Nc2ccc(Oc3ccccc3)cc21` (stereo not drawn) yielded a melting point of 124 to 128 °C.

In turn, `CCOP(=O)(Cc1ccc(N(C(=O)c2cc3c(s2)-c2c(SC)sc(C(N)=O)c2CC3)c2ccc(CP(=O)(OCC)OCC)cc2)cc1)OCC` had a melting point of 262 to 263 °C. Compound `Clc1ccc2c(c1)C(Br)Cn1cccc1S2` (stereo not drawn) registered a melting point of 106 to 107 °C. The value for `N=C(N)Nc1nc(-c2cccc(N)c2)cs1` was 180 to 182 °C. As to `CCOC(=O)CCC(=O)c1ccc(Cl)c(S(N)(=O)=O)c1`, the melting point fell in the range of 94 to 95 °C. Turning to `Cc1nn(C)c(C2=NCCN2)c1[N+](=O)[O-]`, the melting point lay in the range of 143 to 145 °C. With `O=C(c1cccnc1)c1cccc(NC(=O)c2ccn3c2CSC3c2cccnc2)c1` (stereo not drawn), the melting point amounted to 160 °C. `Cc1c(C)c2c(c(C)c1NC(=O)CC(C)C)C(O)(c1ccc3ccccc3c1)C(C)(C)O2` (stereo not drawn) returned a melting point of 108 to 110 °C. For `O=C(Oc1ccccc1)n1c(C(F)(F)F)nc2c([N+](=O)[O-])cc(C(F)(F)F)cc21`, the melting point lay in the range of 100 to 103 °C. Compound `Cc1cc(O)cc(C)c1Sc1ccccn1` had a melting point of 190 °C. `CC(C)NC(=O)Nc1ccnc(Cl)c1` returned a melting point of 142 to 146 °C. The value for `C=CCN1Cc2nc3c(cnn3CCCl)c(N)c2C1=O` was 198 to 199 °C; that for `CC(C)c1cccc2[nH]c(C(=O)O)cc(=O)c12` was over 250 °C; that for `CCOc1ccc(C(=O)CBr)cc1C(=O)OC` was 147 to 148 °C. `CN(CCC(O)c1ccc(Cl)cc1)Cc1ccccc1F` (stereo not drawn): the melting point was in the range of 52 to 54 °C. Under `C[Si](C)(C)C#Cc1ccc(C=CC2=CC(c3ccc(C#C[Si](C)(C)C)cc3)N(c3ccccc3)N2)cc1` (stereo not drawn) stands 128 to 130 °C. `Nc1cc(O)c2c(c1)C(=O)c1cccc(O)c1C2=O` had a melting point of 250 to 252 °C. In turn, `O=C(c1ccc(Br)cc1)c1ccc2cc[nH]c2c1` gave a melting point of 47 to 49 °C. Regarding `CS(=O)(=O)Nc1cccc(Nc2nc(OC3CCOC3)c3nc[nH]c3n2)c1` (stereo not drawn), the melting point fell in the range of 255 to 257 °C. Under `COc1ccccc1OC(=O)c1cnoc1C` stands 108 to 111 °C. Compound `COC(=O)c1ccccc1-c1ccc(COS(C)(=O)=O)cc1` had a melting point of 43 to 45 °C.

Consider `CCOc1ccc(-c2ccc3c(c2)C=C(C(=O)Nc2ccc(CCl)cc2)CCO3)cc1`, for which the melting point was in the range of 187 to 189 °C.

With `C#Cc1cc(Nc2ncnc3cnc(F)cc23)ccc1F`, the melting point fell in the range of 223 to 226 °C. The value for `CCOC(=O)c1ccc(CCCC2NC(=O)CS2)c(Cl)c1` (stereo not drawn) was 81.5 to 82.5 °C; that for `CC1(C)CCCC=C1c1ccc(C(=O)N2Cc3cccn3Cc3ccccc32)cc1` was 118 °C; that for `COc1cc2cc[nH]c2cc1OCCCCl` was 73 to 75 °C. For the compound `Oc1ccc(C=C2c3cc(O)c(O)cc3-c3ccc(O)c(O)c32)cc1`, the melting point fell in the range of 228 to 230 °C. The compound `Cn1c(=O)c2c(Br)cccc2n2cnc(-c3noc(C4CC4)n3)c12` came in with a melting point of 207 °C. `CC(C)C[C@H](NC(=O)OCC1c2ccccc2-c2ccccc21)C(=O)N[C@H]1CCOC1=O` gave a melting point of 175 to 176 °C.

By melting point is commonly meant the temperature, or range, at which the solid turns liquid.

(Values after a melting point compilation (Tetko et al.; mined from patent text by program, amines drawn as free bases though some values may be those of a salt).)
